Source: patent US8053627B2, “Methods for treating demyelination disorders” (University of Chicago, priority 2005, dated 2011)

How the values were obtained:
corpus callosum = assay: Cuprizone remyelination in double transgenic mice on PERK+/+ or PERK+/− background; format: in vivo; details: for remyelinated axons: 9 weeks
From the text: The involvement of the ER stress response in the reduction caused by IFN-γ to remyelinate lesions was examined in transgenic mice that were generated to be heterozygous for a loss of function mutation in pancreatic ER kinase (PERK) (Harding, et al., (2001) Mol Cell 7:1153-1163), and to be temporally regulated for expressing INF-γ in the CNS. TRE/IFN-γ mice were first crossed with PERK+/− mice (Harding, et al. (2001) Mol. Cell 7: 1153-1163) on the C57BL/6 background to generate mice the carry the PERK mutation, and the resulting progeny were crossed to GFAP/tTA mice to obtain transgenic mice that were heterozygous for the PERK mutation. The effect of PERK on remyelination in the presence or absence of INF-γ was evaluated as evaluated as a function of the level of meylination of oligodendrocytes in remyelinating lesions and the number of oligodendrocytes present in the remyelinating lesion.
The extent of remyelination was assessed as described in the previous examples in the corpus callosum of PERK+/+ and PERK+/− mice that were made to express INF-γ (DOX−PERK+/+ and DOX−PERK+/−), and in mice in which the expression of INF-γ was repressed (DOX+PERK+/+ and DOX+PERK+/−). Remyelination was determined by electron microscopy, and was related to the number of CC1 positive oligodendrocytes and the level of caspase-3 expression in the corpus callosum of all animals. The level of caspase-3 was determined by immunohistochemical methods using anti capsase antibody (active-casoase-3 antibody, 1:50; Cel Signaling Technology) and according to the method described in Example 1. Demyelination was induced in six-week-old GFAP/tTA; TRE/IFN-γ double transgenic mice on a PERK+/− background that had been maintained on doxycycline, by simultaneously treating the mice with 0.2% cuprizone and releasing them from doxycycline (DOX−PERK+/−). Remyelination was allowed to occur by withdrawing cuprizone at week 6.

rat oligodendrocytes = assay: Cultured rat oligodendrocytes treated with recombinant rat IFN-γ; format: cell-based
Description: To test whether apoptosis of oligodendrocytes that is induced by INF-γ affects ER stress, the effect on the morphology, the degree of apoptosis and the expression of ER markers was studied in a culture of oligodendrocyte precursor cells (OPC). Oligodendrocyte progenitors were cultured from neonatal rat brains (Baerwald, et al. (1998) J. Neurosci Res. 52: 230-239). A mixed glial culture was grown in flasks in medium containing 10% fetal bovine serum (FBS), and when the astrocyte layer became confluent (10-14 days), oligodendrocyte progenitors were separated from astrocytes and microglia using an orbital shaker. Cells, greater than 95% of which were A2B5 positive, GFAP negative and CD11b negative, were cultured in 0.5% FBS containing medium, which also contained PDGF (10 ng/ml) and FGF (5 ng/ml) (both from R&D Systems, Minneapolis, Minn.). Then cells were switched to 0.5% FBS medium without PDGF and FGF for differentiation. After 5 days in the differentiating medium, approximately 40% of cells were positive for myelin protein 2′3′-cyclic nucleotide 3′-phosphodiestaerase (CNP). 70 U/ml recombinant rat IFN-γ (Calbiochem, La Jolla, Calif.) was added to the cells that had been allowed to differentiation for 5 days. […] To examine the oligodendroglial response to general ER stress-inducing agents, progenitor cells that had been cultured in differentaition medium for 5 or 7 days were treated with 2 μg/ml of tunicamycin (Sigma Aldrich) for 6 hours.
The level of apoptosis of the OPC cells was determined by double staining CNP (1:200; Sternberger Monoclonals, Lutherville, Md.) and TUNEL using the ApopTag Kit (Serologicals Corp., Norcross, Calif.) and following the manufacturer's instructions. Apoptosis was also evaluated by measuring the activity of caspase-3 in oligodendrocyte lysates using the Fluorimetric Caspase 3 Assay Kit (Sigma, St. Louis, Mo.), according to the manufacturer's instructions.
To determine whether INF-γ affects ER function, the RNA expression of ER markers binding immunoglobulin protein (BIP), CAAT enhancer binding protein homologous protein (CHOP), and caspase 12 was determined using real time PCR. RNA was isolated from cultured cells and mice brain using Trizol reagent (Invitrogen, Carlsbad, Calif.) and treated with DNAaseI (Invitrogen) to eliminate genomic DNA. Reverse transcription was performed using Superscript First Strand Synthesis System for RT-PCR kit (Invitrogen). Real-time PCR was performed with iQ Supermix (Bio-Rad, Hercules, Calif.) on a Bio-Rad iQ real-time PCR detection system (Bio-Rad). The following primers and probes (Integrated DNA Technologies Inc., Coralville, Iowa) for real-time PCR were used: mouse CHOP sense primer […] (SEQ ID NO: 34); mouse CHOP antisense primer […] (SEQ ID NO: 35); CHOP probe […] (SEQ ID NO: 36); mouse BIP sense primer […] (SEQ I DNO: 31); mouse BIP antisense primer […] (SEQ ID NO: 32); BIP probe […] (SEQ ID NO: 33); mouse caspase 12 sense primer […] (SEQ ID NO: 37); and mouse caspase antisense primer […] (SEQ ID NO: 38).
To determine the effect of INF-γ on the level of phosphorylated eIF-2α and caspase 12 proteins, western blot analysis was performed using the following antibodies anti-eIF-2α (1:500; Santa Cruz), anti-p-eIF-2α (1:1000, Cell signaling Technology), anti-caspase-12 (1:500; Santa Cruz) and anti-actin (1:1000; Sigma, St Louis, Mo.), and according to the following protocol. […]

IFN-γ: pleotropic cytokine secreted by activated T lymphocytes and natural killer cells; delivered to the CNS by transgene or added as recombinant protein
remyelinated axons (corpus callosum; DOX−PERK+/+): 31.1%±7.6% | CC1 positive oligodendrocytes (corpus callosum; DOX−PERK+/+, week 9): 123.2±27.5 /0.04 mm^2 | remyelinated axons (corpus callosum; DOX−PERK+/−): 15.6%±7.6% | caspase-3 positive oligodendrocytes, DOX−PERK+/− relative to DOX−PERK+/+ (corpus callosum; week 9): 2.3 times | caspase-3 activity in cell lysates (rat oligodendrocytes; 70 U/ml IFN-γ): markedly increased | caspase-12 expression (real-time PCR) (rat oligodendrocytes; 70 U/ml IFN-γ): induction of caspase-12 was observed | level of phosphorylated eIF-2α (Western blot) (rat oligodendrocytes; 70 U/ml IFN-γ): significantly elevated | apoptosis (TUNEL and CNP double labeling) (rat oligodendrocytes; 70 U/ml IFN-γ for 48 h): induced apoptosis in a significant number of oligodendrocytes | cell morphology (rat oligodendrocytes; 70 U/ml IFN-γ for 48 h, cells differentiated 5 days): abnormal morphological changes | level of the active fragment of caspase-12 (Western blot) (rat oligodendrocytes; after 48 h of IFN-γ treatment): strongly elevated
